{"source": "patent US6737383B1", "about": "“Herbicidal oxadiazolidines” (priority 1999, dated 2004)", "key": {"crabgrass": {"tested_on": "crabgrass", "assay": "Test B pre/postemergence crabgrass", "assay_type": "in vivo, Digitaria sanguinalis", "how_it_was_run": "(§1)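 Response is a visual 0-to-10 score relative to untreated plants, where 0 means no effect and 10 means complete control, taken twelve to sixteen days after application. Treatments went onto soil at planting and onto foliage of 1- to 4-leaf plants, using a surfactant-containing non-phytotoxic solvent.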"}, "wheat": {"tested_on": "wheat", "assay": "Test B pre/postemergence wheat", "assay_type": "in vivo, Triticum aestivum", "how_it_was_run": "as §1"}, "wild oat [1]": {"tested_on": "wild oat", "assay": "Test B pre/postemergence wild oat", "assay_type": "in vivo, Avena fatua", "how_it_was_run": "as §1"}, "rice": {"tested_on": "rice", "assay": "Test B flood test rice", "assay_type": "in vivo, Oryza sativa", "how_it_was_run": "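Flood test on plants grown to the 2-leaf stage; treated plants kept in greenhouse twelve to sixteen days, then visually rated against controls on a 0 (no effect) to 10 (complete control) scale.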"}, "Alexandergrass": {"tested_on": "Alexandergrass", "assay": "Test D Alexandergrass", "assay_type": "in vivo, Brachiaria plantaginea", "details": "Preemergence, 0 to 100 scale, 0 no injury, 100 complete control", "how_it_was_run": "(§2)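 Greenhouse pots, sandy loam, single species per pot. Preemergence tests: soil-surface application ≤1 day after planting. Compound formulated in non-phytotoxic solvent with surfactant. Visual rating 14–21 DAT, scale 0–100.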"}, "common groundsel": {"tested_on": "common groundsel", "assay": "Test D common groundsel", "assay_type": "in vivo, Senecio vulgaris", "details": "Preemergence, 0 to 100 scale, 0 no injury, 100 complete control", "how_it_was_run": "as §2"}, "goosegrass": {"tested_on": "goosegrass", "assay": "Test D goosegrass", "assay_type": "in vivo, Eleusine indica", "details": "Preemergence, 0 to 100 scale, 0 no injury, 100 complete control", "how_it_was_run": "as §2"}, "winter wheat [2]": {"tested_on": "winter wheat", "assay": "Test E winter wheat", "assay_type": "in vivo, Triticum aestivum", "details": "Postemergence", "how_it_was_run": "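Greenhouse test: for postemergence, foliar application at 1- to 4-leaf stage; compound in non-phytotoxic solvent with surfactant. Rating is visual, relative to untreated controls, about 21 to 28 days after treatment.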"}, "Green foxtail [3]": {"tested_on": "Green foxtail", "assay": "Test D green foxtail", "assay_type": "in vivo", "how_it_was_run": "as §2"}, "blackgrass": {"tested_on": "blackgrass", "assay": "Test E blackgrass", "assay_type": "in vivo, Alopecurus myosuroides", "details": "Preemergence"}, "green foxtail [4]": {"tested_on": "green foxtail", "assay": "Test E green foxtail", "assay_type": "in vivo, Setaria viridis", "details": "Preemergence"}, "Italian ryegrass": {"tested_on": "Italian ryegrass", "assay": "Test E Italian ryegrass", "assay_type": "in vivo, Lolium multiflorum", "details": "Preemergence"}, "winter wheat [5]": {"tested_on": "winter wheat", "assay": "Test E winter wheat", "assay_type": "in vivo, Triticum aestivum", "details": "Preemergence"}, "wild oat [6]": {"tested_on": "wild oat", "assay": "Test E wild oat", "assay_type": "in vivo, Avena fatua", "details": "Preemergence, 0 to 100 scale where 0 is no effect and 100 is complete control"}, "winter barley": {"tested_on": "winter barley", "assay": "Test E winter barley", "assay_type": "in vivo, Hordeum vulgare", "details": "Preemergence"}, "[7]": {"details": "Postemergence, Rate 62 g/ha, scale 0 to 10, 0 is no effect, 10 is complete control"}, "[8]": {"details": "Postemergence, Rate 250 g/ha, scale 0 to 10, 0 no effect, 10 complete control"}, "[9]": {"details": "Preemergence, Rate 62 g/ha, scale 0 to 10, 0 is no effect, 10 is complete control"}, "[10]": {"details": "Preemergence, Rate 125 g/ha, scale 0 to 10 (0 no effect, 10 complete control)"}, "[11]": {"details": "Preemergence, Rate 250 g/ha, scale of 0 to 10 where 0 is no effect and 10 is complete control"}, "[12]": {"details": "Preemergence, Rate 500 g/ha, scale 0 (no effect) to 10 (complete control)"}, "[13]": {"details": "Rate 125 g/ha, Postemergence, scale 0 to 10, 0 no effect, 10 complete control"}, "[14]": {"details": "Rate 64 g/ha, Preemergence; 0 to 100 scale, 0 no injury, 100 complete control"}, "[15]": {"details": "Rate 125 g/ha, Preemergence; 0 to 100 scale, 0 no injury, 100 complete control"}, "[16]": {"details": "Rate 500 g/ha, 0 to 100 scale where 0 is no effect and 100 is complete control"}, "[17]": {"details": "Rate 1000 g/ha, 0 to 100 scale where 0 is no effect and 100 is complete control"}}}
{"compound": "Cc1cccc(C)c1-n1c(=O)on(C(=O)N(c2ccc(F)cc2)C(C)C)c1=O", "note": "[Compound 18]", "values": [{"measurement": "Crabgrass plant response rating", "setting": "crabgrass; [7]", "value": 0}, {"measurement": "Crabgrass plant response rating", "setting": "crabgrass; [8]", "value": 7}, {"measurement": "Plant response rating, Crabgrass", "setting": "crabgrass; [9]", "value": 6}, {"measurement": "Plant response rating, Crabgrass", "setting": "crabgrass; [10]", "value": 5}, {"measurement": "Plant response rating, Crabgrass", "setting": "crabgrass; [11]", "value": 8}, {"measurement": "Crabgrass plant response rating", "setting": "crabgrass; [12]", "value": 10}, {"measurement": "Crabgrass plant response rating", "setting": "crabgrass; [13]", "value": 3}, {"measurement": "Crabgrass plant response rating", "setting": "crabgrass; Rate 500 g/ha, Postemergence, 0 to 10 scale (0 no effect, 10 complete control)", "value": 9}, {"measurement": "Wheat plant response rating", "setting": "wheat; [7]", "value": 0}, {"measurement": "Wheat plant response rating", "setting": "wheat; [8]", "value": 0}, {"measurement": "Plant response rating, Wheat", "setting": "wheat; [9]", "value": 0}, {"measurement": "Plant response rating, Wheat", "setting": "wheat; [10]", "value": 0}, {"measurement": "Plant response rating, Wheat", "setting": "wheat; [11]", "value": 0}, {"measurement": "Wheat plant response rating", "setting": "wheat; [12]", "value": 0}, {"measurement": "Wheat plant response rating", "setting": "wheat; [13]", "value": 0}, {"measurement": "Wild oats plant response rating", "setting": "wild oat [1]; [7]", "value": 0}, {"measurement": "Wild oats plant response rating", "setting": "wild oat [1]; [8]", "value": 0}, {"measurement": "Plant response rating, Wild oats", "setting": "wild oat [1]; [10]", "value": 0}, {"measurement": "Plant response rating, Wild oats", "setting": "wild oat [1]; [11]", "value": 0}, {"measurement": "Wild oats plant response rating", "setting": "wild oat [1]; [12]", "value": 5}, {"measurement": "Wild oats plant response rating", "setting": "wild oat [1]; [13]", "value": 0}, {"measurement": "Rice plant response rating", "setting": "rice; [7]", "value": 0}, {"measurement": "Rice plant response rating", "setting": "rice; Rate 62 g/ha, headed Pre-emergence (flood test species), scale 0 to 10 (0 no effect, 10 complete control)", "value": 0}, {"measurement": "Rice plant response rating", "setting": "rice; Rate 125 g/ha, Postemergence section (flood test species), scale 0 to 10, 0 no effect, 10 complete control", "value": 0}, {"measurement": "Rice plant response rating", "setting": "rice; Rate 125 g/ha, Pre-emergence, flood test species, scale 0 to 10 where 0 is no effect and 10 is complete control", "value": 0}, {"measurement": "Rice plant response rating", "setting": "rice; Rate 250 g/ha, headed Pre-emergence (flood test species), scale 0 to 10 (0 no effect, 10 complete control)", "value": 0}, {"measurement": "Rice plant response rating", "setting": "rice; Rate 500 g/ha, Postemergence section of Table B, 0 to 10 scale (0 no effect, 10 complete control)", "value": 5}, {"measurement": "Plant response rating, Rice", "setting": "rice; Rate 500 g/ha, headed Pre-emergence (flood test species), scale 0 to 10 (0 no effect, 10 complete control)", "value": 0}, {"measurement": "Rice plant response rating", "setting": "rice; Rate 1000 g/ha, Pre-emergence (as headed), scale 0 to 10", "value": 0}, {"measurement": "Rice plant response rating", "setting": "rice; Rate 2000 g/ha, Pre-emergence (as headed), scale 0 to 10", "value": 0}, {"measurement": "Rice plant response rating", "setting": "rice; flood test, listed under Postemergence, Rate 250 g/ha, scale 0 to 10, 0 no effect, 10 complete control", "value": 2}, {"measurement": "Plant response rating, Alexandergrass", "setting": "Alexandergrass; Rate 16 g/ha", "value": 0}, {"measurement": "Plant response rating, Alexandergrass", "setting": "Alexandergrass; Rate 32 g/ha", "value": 0}, {"measurement": "Plant response rating, Alexandergrass", "setting": "Alexandergrass; Rate 64 g/ha", "value": 0}, {"measurement": "Plant response rating, Alexandergrass", "setting": "Alexandergrass; Rate 125 g/ha", "value": 30}, {"measurement": "Plant response rating, Com. groundsel", "setting": "common groundsel; Rate 16 g/ha", "value": 0}, {"measurement": "Plant response rating, Com. groundsel", "setting": "common groundsel; Rate 32 g/ha", "value": 0}, {"measurement": "Plant response rating, Com. groundsel", "setting": "common groundsel; Rate 64 g/ha", "value": 0}, {"measurement": "Plant response rating, Com. groundsel", "setting": "common groundsel; Rate 125 g/ha", "value": 0}, {"measurement": "Plant response rating, Goosegrass", "setting": "goosegrass; Rate 16 g/ha", "value": 0}, {"measurement": "Plant response rating, Goosegrass", "setting": "goosegrass; Rate 32 g/ha", "value": 0}, {"measurement": "Plant response rating, Goosegrass", "setting": "goosegrass; Rate 64 g/ha", "value": 85}, {"measurement": "Plant response rating, Goosegrass", "setting": "goosegrass; Rate 125 g/ha", "value": 85}, {"measurement": "Plant response rating, Wheat (winter)", "setting": "winter wheat [2]; Rate 250 g/ha, 0 to 100 scale (0 no effect, 100 complete control)", "value": 55}, {"measurement": "Plant response rating, Wheat (winter)", "setting": "winter wheat [2]; Rate 500 g/ha, 0 to 100 scale, 0 no effect, 100 complete control", "value": 65}, {"measurement": "Plant response rating, Green foxtail", "setting": "Green foxtail [3]; Preemergence; Rate 16 g/ha; 0 to 100 scale, 0 no injury, 100 complete control", "value": 0}, {"measurement": "Plant response rating, Green foxtail", "setting": "Green foxtail [3]; Preemergence; Rate 32 g/ha; 0 to 100 scale, 0 no injury, 100 complete control", "value": 0}, {"measurement": "Plant response rating, Green foxtail", "setting": "Green foxtail [3]; Rate 16 g/ha; Preemergence; 0 to 100 scale, 0 no injury, 100 complete control", "value": 0}, {"measurement": "Plant response rating, Green foxtail", "setting": "Green foxtail [3]; Rate 32 g/ha; Preemergence; 0 to 100 scale, 0 no injury, 100 complete control", "value": 0}, {"measurement": "Green foxtail plant response rating", "setting": "Green foxtail [3]; [14]", "value": 85}, {"measurement": "Plant response rating, Green foxtail", "setting": "Green foxtail [3]; [14]", "value": 85}, {"measurement": "Green foxtail plant response rating", "setting": "Green foxtail [3]; [15]", "value": 85}, {"measurement": "Plant response rating, Green foxtail", "setting": "Green foxtail [3]; [15]", "value": 85}, {"measurement": "Plant response rating, Blackgrass", "setting": "blackgrass; Rate 250 g/ha, 0 to 100 scale", "value": 10}, {"measurement": "Plant response rating, Blackgrass", "setting": "blackgrass; [16]", "value": 25}, {"measurement": "Plant response rating, Blackgrass", "setting": "blackgrass; [17]", "value": 85}, {"measurement": "Plant response rating, Green foxtail", "setting": "green foxtail [4]; Rate 250 g/ha, 0 to 100 scale", "value": 30}, {"measurement": "Plant response rating, Green foxtail", "setting": "green foxtail [4]; [16]", "value": 50}, {"measurement": "Plant response rating, Green foxtail", "setting": "green foxtail [4]; [17]", "value": 70}, {"measurement": "Plant response rating, I. Ryegrass", "setting": "Italian ryegrass; Rate 250 g/ha, 0 to 100 scale", "value": 40}, {"measurement": "Plant response rating, I. Ryegrass", "setting": "Italian ryegrass; [16]", "value": 60}, {"measurement": "Plant response rating, I. Ryegrass", "setting": "Italian ryegrass; [17]", "value": 70}, {"measurement": "Plant response rating, Wheat (winter)", "setting": "winter wheat [5]; Rate 250 g/ha, 0 to 100 scale", "value": 0}, {"measurement": "Plant response rating, Wheat (winter)", "setting": "winter wheat [5]; [16]", "value": 10}, {"measurement": "Plant response rating, Wheat (winter)", "setting": "winter wheat [5]; [17]", "value": 20}, {"measurement": "Plant response rating, Wild oat", "setting": "wild oat [6]; Rate 500 g/ha", "value": 40}, {"measurement": "Plant response rating, Wild oat", "setting": "wild oat [6]; Rate 1000 g/ha", "value": 50}, {"measurement": "Plant response rating, Barley (winter)", "setting": "winter barley; Rate 250 g/ha, 0 to 100 scale", "value": 20}, {"measurement": "Plant response rating, Barley (winter)", "setting": "winter barley; [16]", "value": 30}, {"measurement": "Plant response rating, Barley (winter)", "setting": "winter barley; [17]", "value": 50}]}
